Test results: US12060347B2 (BRISTOL-MYERS SQUIBB COMPANY, priority 2016, dated 2024)

Biological target: T1, human PAR4 (Homo sapiens, UniProt Q96RI0)
T1 construct: expressed in transfected cells; host or cells: HEK293 PAR4 Clone 1.2A (BMS Arctic ID 383940)
T1 sequence (Q96RI0 18-385): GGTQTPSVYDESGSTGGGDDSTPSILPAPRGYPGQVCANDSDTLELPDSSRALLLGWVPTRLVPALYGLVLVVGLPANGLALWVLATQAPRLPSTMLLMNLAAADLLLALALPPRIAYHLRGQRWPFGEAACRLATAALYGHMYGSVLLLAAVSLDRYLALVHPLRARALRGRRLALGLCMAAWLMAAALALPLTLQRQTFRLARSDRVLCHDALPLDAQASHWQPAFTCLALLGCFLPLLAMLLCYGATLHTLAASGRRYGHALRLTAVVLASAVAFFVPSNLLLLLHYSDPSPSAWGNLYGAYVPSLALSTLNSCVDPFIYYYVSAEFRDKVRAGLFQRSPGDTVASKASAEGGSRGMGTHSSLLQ
Test: PAR4 FLIPR assay: antagonism of agonist-peptide-induced calcium mobilization in PAR4-expressing HEK293 cells
Format: cell-based
Settings: H-Ala-Phe(4-F)-[…]NH2-induced intracellular calcium mobilization, 11-point curves

Row | Structure (SMILES) | IC50 [nM]
1 | COc1cnc2c(-c3nc4cc(F)c(O[C@@H](C)[C@@H](C)OC(=O)Nc5cnc(OCCO)nc5)nc4s3)cc(C)cc2n1 [Example 721, (2R,3S)-3-((6-fluoro-2-(2-methoxy-7-methylquinoxalin-5-yl)thiazolo[5,4-b]pyridin-5-yl)oxy)butan-2-yl (2-(2-hydroxyethoxy)pyrimidin-5-yl)carbamate] | 2.6
2 | CCOc1cnc2c(-c3nc4cc(F)c(O[C@@H](C)[C@@H](C)OC(=O)Nc5cnc([C@@H](C)O)nc5)cc4s3)cc(C)cc2n1 [Example 536, (2R,3S)-3-((2-(2-ethoxy-7-methylquinoxalin-5-yl)-5-fluorobenzo[d]thiazol-6-yl)oxy) butan-2-yl (2-((R)-1-hydroxyethyl)pyrimidin-5-yl)carbamate] | 4.9
3 | COc1cnc2c(-c3nc4cc(F)c(OC[C@@H](C)OC(=O)Nc5ccc(C(=O)NC[C@@H](C)O)nc5)nc4s3)cc(C)cc2n1 [Example 747, (R)-1-((6-fluoro-2-(2-methoxy-7-methylquinoxalin-5-yl)thiazolo[5,4-b]pyridin-5-yl)oxy) propan-2-yl (6-(((R)-2-hydroxypropyl)carbamoyl)pyridin-3-yl)carbamate] | 2.4
4 | COc1cnc2c(-c3nc4cc(F)c(O[C@@H](C)[C@@H](C)OC(=O)Nc5cnc(C)nc5)nc4s3)cc(C)cc2c1 [Example 791, (2R,3S)-3-((6-fluoro-2-(3-methoxy-6-methylquinolin-8-yl)thiazolo[5,4-b]pyridin-5-yl)oxy)butan-2-yl (2-methylpyrimidin-5-yl)carbamate] | 2.3
5 | COc1cnc2c(-c3nc4cc(F)c(O[C@@H](C)[C@@H](C)OC(=O)Nc5cnc(O[C@@H](C)CO)nc5)nc4s3)cc(C)cc2n1 [Example 724, (2R,3S)-3-((6-fluoro-2-(2-methoxy-7-methylquinoxalin-5-yl)thiazolo[5,4-b]pyridin-5-yl)oxy)butan-2-yl (2-(((S)-1-hydroxypropan-2-yl)oxy)pyrimidin-5-yl)carbamate] | 2.1
6 | COc1cc(C)c2nc(-c3cc(C)cc4nc(COc5ccccc5)cnc34)sc2c1 [Example 187, 6-methoxy-4-methyl-2-(7-methyl-2-(phenoxymethyl)quinoxalin-5-yl)benzo[d]thiazole] | 390
7 | COc1cnc2c(-c3nc4c(Cl)c(F)c(OCCN(C)C(=O)Nc5cnc(C)nc5)cc4s3)cc(C)cc2n1 [Example 520, 1-(2-((4-chloro-5-fluoro-2-(2-methoxy-7-methylquinoxalin-5-yl)benzo[d]thiazol-6-yl)oxy)ethyl)-1-methyl-3-(2-methylpyrimidin-5-yl)urea] | 77
8 | COc1cnc2c(-c3nc4c(Cl)c(F)c(OC[C@@H](C)OC(=O)Nc5cnc(Cl)nc5)cc4s3)cc(C)cc2n1 [Example 401, (R)-1-((4-chloro-5-fluoro-2-(2-methoxy-7-methylquinoxalin-5-yl)benzo[d]thiazol-6-yl)oxy)propan-2-yl (2-chloropyrimidin-5-yl)carbamate] | 2.7
9 | COc1cnc2c(-c3nc4c(Cl)c(F)c(OCCOC(=O)NCC(F)(F)F)cc4s3)cc(C)cc2n1 [Example 334, 2((4-chloro-5-fluoro-2-(2-methoxy-7-methylquinoxalin-5-yl)benzo[d]thiazol-6-yl)oxy)ethyl (2,2,2-trifluoroethyl)carbamate] | 29
10 | COCc1cnc2c(-c3nc4c(C)c(C)c(OC(C)CO)cc4s3)cc(C)cc2n1 (racemic) [Example 321, 2-((2-(2-(methoxymethyl)-7-methylquinoxalin-5-yl)-4,5-dimethylbenzo[d]thiazol-6-yl)oxy)propan-1-ol] | 3.1
11 | COc1cnc2c(-c3nc4cc(F)c(OC[C@@H](C)OC(=O)Nc5ccc6[nH]c(=O)oc6c5)cc4s3)cc(C)cc2n1 [Example 350, (R)-1-((5-fluoro-2-(2-methoxy-7-methylquinoxalin-5-yl)benzo[d]thiazol-6-yl)oxy)propan-2-yl (2-oxo-2,3-dihydrobenzo[d]oxazol-6-yl)carbamate] | 2.8
12 | COc1cnc2c(-c3nc4cc(F)c(OC[C@@H](C)OC(=O)Nc5cnc(CO)nc5)cc4s3)cc(C)cc2n1 [Example 496, (R)-1-((5-fluoro-2-(2-methoxy-7-methylquinoxalin-5-yl)benzo[d]thiazol-6-yl)oxy)propan-2-yl (2-(hydroxymethyl)pyrimidin-5-yl)carbamate] | 1.9
13 | COc1cnc2c(-c3cc4cc(OC)c(F)c(Cl)c4o3)cc(C)cc2n1 [Example 122, 5-(7-chloro-6-fluoro-5-methoxybenzofuran-2-yl)-2-methoxy-7-methylquinoxaline] | 3.9
14 | COc1cnc2c(-c3nc4c(CO)c(C)c(OC)cc4s3)cc(C)cc2n1 [Example 301] | 15
15 | COc1cnc2c(-c3nc4cc(F)c(OC[C@@H](C)OC(=O)Nc5ccnnc5)nc4s3)cc(C)cc2n1 [Example 698, (R)-1-((6-fluoro-2-(2-methoxy-7-methylquinoxalin-5-yl)thiazolo[5,4-b]pyridin-5-yl)oxy) propan-2-yl pyridazin-4-ylcarbamate] | 17
16 | COc1cnc2c(-c3nc4cc(F)c(OCCOC(=O)Nc5cccnc5)nc4s3)cc(C)cc2n1 [Example 810, 2-((6-fluoro-2-(2-methoxy-7-methylquinoxalin-5-yl)thiazolo[5,4-b]pyridin-5-yl)oxy)ethyl pyridin-3-ylcarbamate] | 6.9
17 | COc1cc(C(O)C2(c3ccccc3)CC2)c2nc(-c3cc(C)cc4nc(OC)cnc34)sc2c1 (stereo not drawn) [Example 668, (6-methoxy-2-(2-methoxy-7-methylquinoxalin-5-yl)benzo[d]thiazol-4-yl)(1-phenylcyclopropyl)methanol] | 7.3
18 | CNC(=O)c1ccc(NC(=O)O[C@H](C)[C@H](C)Oc2cc3sc(-c4cc(Cl)cc5nc(OC)cnc45)nc3cc2F)cn1 [Example 832, (2R,3S)-3-((2-(7-chloro-2-methoxyquinoxalin-5-yl)-5-fluorobenzo[d]thiazol-6-yl)oxy)butan-2-yl (6-(methylcarbamoyl)pyridin-3-yl)carbamate] | 2.5
19 | COc1cc(C(O)C2(OC)CCC2)c2nc(-c3cc(C)cc4nc(OC)cnc34)sc2c1 (stereo not drawn) [Example 666, (6-methoxy-2-(2-methoxy-7-methylquinoxalin-5-yl)benzo[d]thiazol-4-yl)(1-methoxycyclobutyl)methanol] | 1.1
20 | COc1cnc2c(-c3nc4cc(F)c(OC[C@@H](C)OC(=O)Nc5ccnc(CCO)c5)cc4s3)cc(C)cc2n1 [Example 545, (R)-1-((5-fluoro-2-(2-methoxy-7-methylquinoxalin-5-yl)benzo[d]thiazol-6-yl)oxy)propan-2-yl (2-(2-hydroxyethyl)pyridin-4-yl)carbamate] | 1.5

The remaining lines, values ahead:

Row | IC50 [nM] | Structure (SMILES)
21 | 0.7 | COc1cnc2c(-c3nc4cc(F)c(O[C@@H](C)[C@@H](C)OC(=O)Nc5ccnc(OCCO)c5)cc4s3)cc(C)cc2n1 [Example 388, (2R,3S)-3-((5-fluoro-2-(2-methoxy-7-methylquinoxalin-5-yl)benzo[d]thiazol-6-yl)oxy)butan-2-yl (2-(2-hydroxyethoxy)pyridin-4-yl)carbamate]
22 | 0.3 | [2H]C([2H])([2H])OC([2H])([2H])c1cnc2c(-c3nc4c(C(O)C(C)(C)C)cc(OC)cc4s3)cc(C)cc2n1 (single isomer, unassigned) [Example 170, 1-(6-methoxy-2-(2-(methoxymethyl)-7-methylquinoxalin-5-yl)benzo[d]thiazol-4-yl)-2,2-dimethylpropan-1-ol-d5]
23 | 0.9 | COCc1cnc2c(-c3nc4cc(Cl)c(OC)cc4s3)cc(C)cc2n1 [Example 268, 5-chloro-6-methoxy-2-(2-(methoxymethyl)-7-methylquinoxalin-5-yl)benzo[d]thiazole]
24 | 0.6 | COCc1cnc2c(-c3nc4c(C(O)C(F)(F)F)cc(OC)cc4s3)cc(C)cc2n1 (stereo not drawn) [Example 171, 2,2,2-trifluoro-1-(6-methoxy-2-(2-(methoxymethyl)-7-methylquinoxalin-5-yl)benzo[d]thiazol-4-yl)ethanol]
25 | 1 | COc1cnc2c(-c3nc4cc(F)c(OC)cc4s3)cc(CO)cc2n1 [Example 222, (8-(5-fluoro-6-methoxybenzo [d]thiazol-2-yl)-3-methoxyquinoxalin-6-yl)methanol]
26 | 1.1 | COc1cnc2c(-c3nc4c(C)cc(OCCOC(=O)Nc5cccnc5)cc4s3)cc(C)cc2n1 [Example 111, 2-(2-(2-methoxy-7-methylquinoxalin-5-yl)-4-methylbenzo[d]thiazol-6-yloxy)ethyl pyridin-3-ylcarbamate]
27 | 0.9 | CNC(=O)c1ncc(NC(=O)O[C@H](C)COc2cc3sc(-c4cc(C)cc5nc(OC)cnc45)nc3cc2F)cn1 [Example 430, (R)-1-((5-fluoro-2-(2-methoxy-7-methylquinoxalin-5-yl)benzo[d]thiazol-6-yl)oxy)propan-2-yl (2-(methylcarbamoyl)pyrimidin-5-yl)carbamate]
28 | 1.1 | COCc1cnc2c(-c3nc4c(C(C)O)c(C)c(OC)cc4s3)cc(C)cc2n1 (stereo not drawn) [Example 326, 1-(6-methoxy-2-(2-(methoxymethyl)-7-methylquinoxalin-5-yl)-5-methylbenzo[d]thiazol-4-yl)ethanol]
29 | 0.3 | COCc1cnc2c(-c3nc4c(Cl)cc(OC)cc4s3)cc(Cl)cc2n1 [Example 210, 4-chloro-2-(7-chloro-2-(methoxymethyl)quinoxalin-5-yl)-6-methoxybenzo[d]thiazole]
30 | 0.5 | COc1cnc2c(-c3nc4cc(F)c(O[C@@H](C)[C@@H](C)OC(=O)Nc5cnc(N6CCOCC6)nc5)cc4s3)cc(C)cc2n1 [Example 608, (2R,3S)-3-((5-fluoro-2-(2-methoxy-7-methylquinoxalin-5-yl)benzo[d]thiazol-6-yl)oxy)butan-2-yl (2-morpholinopyrimidin-5-yl)carbamate]
